Source: patent US11879145B2, “Reagents and methods for replication, transcription, and translation in semi-synthetic organisms” (The Scripps Research Institute, priority 2019, dated 2024)

Tests used:
sfGFP^151(AXC) [1] = test: In vivo translation screen of XTPs/YTPs: protein shift (AzK incorporation) by DBCO-TAMRA western blot; type: cell-based, E. coli; settings: TPT3TP 30 μM, dCNMO-dTPT3 UBP, strain ML2
Protocol: In vivo Translation Screen of XTPs/YTPs. An overnight culture of the SSO strain ML2 carrying the pGEX-MbPylRS TetR plasmid was grown in 2×YT supplemented with 50 mM potassium phosphate, […] chloramphenicol and 100 μg/mL carbenicillin (herein referred to in this section as “media”), then diluted back to an OD600 of 0.03 in the same media and grown to an OD600 of 0.4 to 0.6. The culture was then chilled with shaking over ice-water for 15 minutes then pelleted by centrifugation at 3,200×g for 10 min. Cells were then resuspended and washed with ice-cold ddH2O twice then resuspended in ice-cold ddH2O to OD600 of 55-65. The electrocompetent cells (50 μL) and 1 ng of Golden Gate assembled plasmid with the UBP within the sfGFP and tRNAPyl genes (see Golden Gate Assembly of Plasmids) were transferred to a pre-chilled electroporation cuvette (0.2-cm-gap), then electroporated (Gene Pulser II; Bio-Rad) according to manufacturer's recommendations (voltage […], capacitor 2.5 μF, resistor 200Ω), and then immediately diluted with 950 μL of media. An aliquot (40 μL) of the transformation was then diluted five-fold in media supplemented with dCNMOTP (25 μM) and dTPT3TP (10 μM) for a final volume of 200 μL then allowed to recover for 1 h shaking at 37° C. Two-fold dilutions of the recovery were plated onto solid media supplemented with zeocin (50 μg/mL), dCNMOTP (10 μM), dTPT3TP (10 μM), and agar (2% w/v), then grown at 37° C. for 18 h. Single colonies were picked and grown in media (300 μL) supplemented with 50 μg/mL zeocin and provided dCNMOTP (25 μM) and dTPT3TP (10 μM) (herein afterward referred to in this section as “growth media”). The culture was monitored for cell growth (Envision 2103 Multilabel Plate Reader with a 590/20 nm filter) and then collected at an OD600˜1.0. An aliquot (50 μL) was subjected to plasmid isolation using the ZR Plasmid Prep Kit (Zymo Research). Isolated plasmids were then subjected to the streptavidin gel shift assay described below (using primers P3-4 and P5-6, Table S1) to determine UBP retention.
A colony with excellent UBP retention was then diluted to an OD600˜0.01 in growth media and grown to OD600˜0.4-0.6. This culture was then divided into multiple 300 μL cultures and for the screen of XTP analogs, each was provided with the corresponding XTP (at either 25 μM or 250 μM) or ddH2O for “−XTP” samples, TPT3TP (30 μM), and AzK (10 mM). For the screen of YTP analogs, each 300 μL culture was provided with the corresponding YTP (at either 25 μM or 250 μM) or ddH2O for “−YTP” samples, NaMTP (250 μM), and AzK (10 mM). Samples were shielded from light after addition of AzK to prevent photodegradation. These samples were then grown at 37° C. for 20 min before adding 1 mM IPTG and grown at 37° C. for an additional 1 h to induce T7 RNAP and transcription of tRNAPyl and PylRS. From this point on, cells were monitored for growth and fluorescence. Expression of sfGFP was then induced with anhydrotetracycline (100 ng/mL). After an additional 3 h of growth at 37° C., cells were collected (230 μL for affinity purification of sfGFP), cooled, and then pelleted and stored at −80° C. before protein purification.
Affinity Purification of sfGFP. Cell pellets collected from translation experiments were resuspended in BugBuster (100 μL 1×, EMD Millipore) and shaken at room temperature for 15 min. […]

sfGFP^151(AXC) [2] = test: Optimization of unnatural ribonucleotide triphosphate concentrations (sfGFP fluorescence and protein shift); type: cell-based, E. coli
Protocol: Examples 1A, 1B, and 2 identified dCNMO-dTPT3 as a competent UBP for the storage of information, and TAT1TP and NaMTP or 5FMTP as competent ribonucleoside triphosphates for its retrieval. Upon transformation with the same plasmids used above, 10 μM dTPT3TP and 25 μM dCNMOTP were provided in the growth media, which was then also supplemented with TAT1TP at concentrations ranging from 100 μM to 12.5 μM, and either NaMTP or 5FMTP at concentrations ranging from 200 μM to 12.5 μM, all in series of 2-fold dilutions, and after the addition of 1 mM AzK, the cells were induced to express sfGFP. […] In both cases, fluorescence was higher at lower concentrations of NaMTP or 5FMTP (due to increased production of contaminating natural sfGFP, see below). Additionally, cells generally produced higher fluorescence at higher concentrations of TAT1TP. […] Protein production was again quantified via the gel shift assay (FIG. 6C and FIG. 6D). Generally, as the concentration of NaMTP decreased below 200 μM, incrementally lower fidelity of AzK incorporation into sfGFP was observed, while with use of 5FMTP this reduction in fidelity was only observed below a concentration of 50 μM. Clearly lower concentrations of 5FMTP can be used without compromising fidelity. Cells provided with a high concentration of 5FMTP (≥50 µM) produced high protein shifts at all concentrations of TAT1TP explored (100 μM, 50 μM, 25 μM, or 12.5 μM).
Optimization of in vivo Translation Conditions. An overnight culture of the SSO strain ML2 carrying the pGEX-MbPylRS TetR plasmid was grown in 2×YT supplemented with 50 mM potassium phosphate, […] chloramphenicol and 100 μg/mL carbenicillin (herein referred to in this section as “media”), then diluted back to an OD600 of 0.03 in the same media and grown to an OD600 of 0.4-0.6. The culture was then chilled with shaking over ice-water for 15 min then pelleted by centrifugation at 3,200×g for 10 min. Cells were then resuspended and washed with ice-cold ddH2O twice then resuspended in ice-cold ddH2O to an OD600 of 55-65. The electrocompetent cells (50 μL) and ˜1 ng of Golden Gate assembled plasmid with the UBP within the sfGFP and tRNAPyl genes (see Golden Gate Assembly of Plasmids) were transferred to a pre-chilled electroporation cuvette (0.2-cm-gap), then electroporated (Gene Pulser II; Bio-Rad) according to manufacturer's recommendations (voltage […], capacitor 2.5 μF, resistor 200Ω), and then immediately diluted with 950 μL of media. […] The culture was monitored for cell growth (Envision 2103 Multilabel Plate Reader with a 590/20 nm filter) and then collected at an OD600˜1.0. […]

COc1cc2ccccc2cc1[C@@H]1O[C@H](COP(=O)(O)OP(=O)(O)OP(=O)(O)O)[C@@H](O)[C@H]1O [NaMTP]
sfGFP protein gel shift (ncAA incorporation) (sfGFP^151(AXC) [1]; XTP 25 μM): 86%
sfGFP protein gel shift (ncAA incorporation) (sfGFP^151(AXC) [1]; XTP 250 μM): 98%
Concentration for combined optimization of protein purity and yield (sfGFP^151(AXC) [2]; NaMTP and TAT1TP pair): 200 µM
XTP concentration below which lower fidelity of AzK incorporation into sfGFP was observed (sfGFP^151(AXC) [2]; with TAT1TP 12.5-100 μM): 200 µM
